Measurements as given in ChEMBL document CHEMBL4118133, “Inhibitory effects of methyl-3,5-di-O-caffeoyl-epi-quinate on RANKL-induced osteoclast differentiation” (Bioorg Med Chem Lett, 2018).
Calls of active or inactive are those of the source. No cut-off for these calls is given here.

Experiments:
BMDM [1] = assay: Inhibition of M-CSF/RANKL-induced osteoclast differentiation in ICR mouse BMDM assessed as downregulation of Ctsk mRNA expression at 5 uM by qRT-PCR method; type: functional, cell-based
BMDM [2] = assay: Inhibition of M-CSF/RANKL-induced osteoclast differentiation in ICR mouse BMDM assessed as downregulation of Nfatc1 expression at 5 uM after 3 days by Western blot method; type: functional, cell-based
BMDM [3] = assay: Inhibition of M-CSF/RANKL-induced osteoclast differentiation in ICR mouse BMDM assessed as downregulation of Acp5 mRNA expression at 5 uM by qRT-PCR method; type: functional, cell-based
[4] = target: RAC-alpha serine/threonine-protein kinase (Mus musculus) (UniProt P31750); assay: Inhibition of RANKL-induced AKT phosphorylation in ICR mouse BMDM at 5 uM preincubated for 1 hr followed by RANKL stimulation measured after 30 mins by Western blot method; type: cell-based
RAC-alpha serine/threonine-protein kinase (Mus musculus), sequence (P31750 whole entry): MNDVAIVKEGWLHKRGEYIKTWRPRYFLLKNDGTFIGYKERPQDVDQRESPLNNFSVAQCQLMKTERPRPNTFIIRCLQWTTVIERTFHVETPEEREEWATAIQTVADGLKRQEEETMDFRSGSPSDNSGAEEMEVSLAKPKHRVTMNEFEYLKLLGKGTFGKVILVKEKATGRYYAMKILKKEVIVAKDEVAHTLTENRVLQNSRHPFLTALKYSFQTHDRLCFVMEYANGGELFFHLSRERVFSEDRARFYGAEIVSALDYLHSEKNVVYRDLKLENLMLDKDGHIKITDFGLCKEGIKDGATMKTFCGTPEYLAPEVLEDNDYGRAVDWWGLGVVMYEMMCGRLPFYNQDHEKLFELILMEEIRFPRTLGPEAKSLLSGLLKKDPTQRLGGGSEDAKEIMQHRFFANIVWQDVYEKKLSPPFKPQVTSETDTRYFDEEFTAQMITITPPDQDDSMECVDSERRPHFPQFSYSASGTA

BMDM [5] = assay: Inhibition of M-CSF/RANKL-induced osteoclast differentiation in ICR mouse BMDM at 1 uM after 4 days by TRAP staining method relative to control; type: functional; details: 96 h
BMDM [6] = assay: Inhibition of M-CSF/RANKL-induced osteoclast differentiation in ICR mouse BMDM assessed as decrease in number of cells with nuclear Nfatc1 at 5 uM by rhodamine-conjugated phalloidin/DAPI staining-based immunofluorescence method; type: functional, cell-based
BMDM [7] = assay: Inhibition of RANKL-induced ERK phosphorylation in ICR mouse BMDM at 5 uM preincubated for 1 hr followed by RANKL stimulation measured after 5 to 30 mins by Western blot method; type: cell-based
BMDM [8] = assay: Inhibition of M-CSF/RANKL-induced osteoclast differentiation in ICR mouse BMDM assessed as downregulation of Nfatc1 mRNA expression at 5 uM by qRT-PCR method; type: functional, cell-based
Osteoclast = assay: Effect on bone-resorbing function of osteoclast derived from M-CSF/RANKL-induced ICR mouse BMDM assessed as change in size of resorption pit area at 5 uM after 2 days by hematoxylin staining-based assay; type: functional, cell-based
BMDM [9] = assay: Growth inhibition of ICR mouse BMDM up to 10 uM after 3 days by MTT assay; type: cell-based; details: 72 h
BMDM [10] = assay: Inhibition of M-CSF/RANKL-induced osteoclast differentiation in ICR mouse BMDM assessed as downregulation of Dcstamp mRNA expression at 5 uM by qRT-PCR method; type: functional, cell-based
BMDM [11] = assay: Inhibition of RANKL-mediated decrease in Bcl6 mRNA expression in ICR mouse BMDM at 5 uM by qRT-PCR method; type: functional, cell-based
BMDM [12] = assay: Inhibition of RANKL-mediated decrease in Irf8 mRNA expression in ICR mouse BMDM at 5 uM by qRT-PCR method; type: functional, cell-based
[13] = target: MAP kinase p38 (Mus musculus) (UniProt P47811+O08911+Q9WUI1+Q9Z1B7); assay: Inhibition of RANKL-induced p38 phosphorylation in ICR mouse BMDM at 5 uM preincubated for 1 hr followed by RANKL stimulation measured after 5 to 30 mins by Western blot method; type: cell-based
BMDM [14] = assay: Inhibition of RANKL-mediated decrease in Mafb mRNA expression in ICR mouse BMDM at 5 uM by qRT-PCR method; type: functional, cell-based
BMDM [15] = assay: Inhibition of M-CSF/RANKL-induced osteoclast differentiation in ICR mouse BMDM at 5 to 10 uM after 4 days by TRAP staining method; type: functional, cell-based

## COC(=O)[C@]1(O)C[C@@H](OC(=O)/C=C/c2ccc(O)c(O)c2)[C@H](O)[C@H](OC(=O)/C=C/c2ccc(O)c(O)c2)C1
BMDM [1]
  inhibition: Active
BMDM [2]
  inhibition: Active
BMDM [3]
  inhibition: Active
[4]
  inhibition: Active
BMDM [5]
  inhibition at 1 µM: 78%
BMDM [6]
  inhibition: Active
BMDM [7]
  inhibition: Active
BMDM [8]
  inhibition: Active
Osteoclast
  Activity: inactive
BMDM [9]
  growth inhibition (GI): Non-Toxic
BMDM [10]
  inhibition: Active
BMDM [11]
  inhibition: Active
BMDM [12]
  inhibition: Active
[13]
  inhibition: Active
BMDM [14]
  inhibition: Active
BMDM [15]
  inhibition: Active
